Test results published in patent EP0294307B1, “3-Arylcarbamoyl-5-aminomethyl-oxazolidines, and their salts with pharmaceutically acceptable acids” (CORTIAL S.A., priority 1987, dated 1988).

Experiments:
[1] = tested on: souris; assay: Toxicity: mortality in mice after oral or intraperitoneal administration; type: in vivo
[2] = tested on: candida albicans; assay: In vitro antifungal activity by standard dilution techniques; type: cell-based; conditions: concentration de 20 microgramme par ml
Description: In vitro une activité antifongique a été mise en évidence vis à vis de candida albicans pour le COR3296. L'activité observée par des techniques de dilution standard est significative à la concentration de 20 microgramme par ml.

[3] = tested on: rat génétiquement hypertendu; assay: Arterial blood pressure in genetically hypertensive rats after oral administration; type: in vivo; conditions: 60mg/kg voie orale
Experimental: Administré chez le rat génétiquement hypertendu à la dose de 60mg/kg par voie orale le COR3267 entraine une diminution de la pression artérielle de 8, 12 et 14 %, ces variations étant respectivement mesurées 2, 4 et 6 heures après l'administration.

[4] = voie intrapéritonéale, 200mg/kg

N=C1OC(CN2CCN(c3ccccc3)CC2)CN1C(=O)Nc1ccccc1 (stereo not drawn) [COR3262, Phényl carbamoyl-3, imino-2, (phényl-4 pipérazinylméthyl)-5 oxazolidine]
mortalité [1, 4]: aucune mortalité | mortalité ([1]; voie orale, 300mg/kg): aucune mortalité

N=C1OC(CN2CCN(c3ccccn3)CC2)CN1C(=O)Nc1ccccc1 (stereo not drawn) [COR3263, Phényl carbamoyl-3 imino-2 ((pyridyl-2)-4 pipérazinylméthyl)-5 oxazolidine]
mortalité [1, 4]: aucune mortalité | mortalité ([1]; voie orale, 300mg/kg): aucune mortalité

N=C1OC(CN2CCN(c3cccc(C(F)(F)F)c3)CC2)CN1C(=O)Nc1ccccc1 (stereo not drawn) [COR3266, Phényl carbamoyl-3 imino-2 ((trifluorométhyl-3 phényl)-4 pipérazinylméthyl)-5 oxazolidine]
mortalité [1, 4]: aucune mortalité | mortalité ([1]; voie orale, 300mg/kg): aucune mortalité

O=C(Nc1ccccc1)N1CC(CN2CCN(c3cccc(C(F)(F)F)c3)CC2)OC1=O (stereo not drawn) [COR3276, Phényl carbamoyl-3 ((trifluorométhyl-3 phényl)-4 pipérazinylméthyl)-5 oxazolidinone-2]
mortalité [1, 4]: aucune mortalité | mortalité ([1]; voie orale, 300mg/kg): aucune mortalité

N=C1OC(CN2CCN(c3ccc(F)cc3)CC2)CN1C(=O)Nc1ccccc1 (stereo not drawn) [COR3278, Phényl carbamoyl-3 imino-2 ((fluoro-4 phényl)-4 pipérazinylméthyl)-5 oxazolidine]
mortalité [1, 4]: aucune mortalité | mortalité ([1]; voie orale, 300mg/kg): aucune mortalité

N=C1OC(CN2CCN(c3cccc(Cl)c3)CC2)CN1C(=O)Nc1ccccc1 (stereo not drawn) [COR3279, Phényl carbamoyl-3 imino-2 ((chloto-3 phényl)-4 pipérazinylméthyl)-5 oxazolidine]
mortalité [1, 4]: aucune mortalité | mortalité ([1]; voie orale, 300mg/kg): aucune mortalité

N=C1OC(CN2CCN(c3ccccc3)CC2)CN1C(=S)Nc1ccccc1 (stereo not drawn) [COR3296, Phényl thiocarbamoyl-3 imino-2 (phényl-4 pipérazinylméthyl)-5 oxazolidine]
mortalité [1, 4]: aucune mortalité | mortalité ([1]; voie orale, 300mg/kg): aucune mortalité | activité antifongique [2]: significative

Chlorhydrate de la phényl carbamoyl-3 ((chloro-3 phényl)-4 pipérazinylméthyl)-5 oxazolidinone-2 [COR3277]
mortalité [1, 4]: aucune mortalité | mortalité ([1]; voie orale, 300mg/kg): aucune mortalité

Chlorhydrate de la phényl carbamoyl-3 ((fluoro-4 phényl)-4 pipérazinylméthyl)-5 oxazolidinone-2 [COR3265]
mortalité [1, 4]: aucune mortalité | mortalité ([1]; voie orale, 300mg/kg): aucune mortalité

Chlorhydrate de la phényl carbamoyl-3, (phényl-4 pipérazinylméthyl)-5 oxazolidinone-2 [COR3267]
mortalité [1, 4]: aucune mortalité | mortalité ([1]; voie orale, 300mg/kg): aucune mortalité | diminution de la pression artérielle ([3]; 2 heures après l'administration): 8% | diminution de la pression artérielle ([3]; 4 heures après l'administration): 12% | diminution de la pression artérielle ([3]; 6 heures après l'administration): 14%
